# Where two headings read alike, the source gives them in different places. Where a SMILES comes first, the peptide text is derived from it. [ ]: non-standard residue; d: D form. The star is where a group is joined. Dab = NCC[C@H](N)C(=O)O; Cbz = O=C(OCc1ccccc1)*
# Experiments:
# [1] = test system: Escherichia coli ATCC 25922; format: cell-based; settings: E. coli ATCC 25922; TSB
# Protocol: (§4) The minimum inhibitory concentration (MIC) of paenipeptin analogues was determined using the broth microdilution method (Wirker, M. A. Methods for Dilution Antimicrobial Susceptibility Tests for Bacteria that Grow Aerobically: Approved Standard M07-A8; Clinical and Laboratory Standards Institute, Wayne, Pa., 2009). Seven reference strains (Acinetobacter baumannii ATCC 19606, Escherichia coli ATCC 25922, Klebsiella pneumoniae ATCC 13883, Pseudomonas aeruginosa ATCC 27853, Enterococcus faecium ATCC 19434, Staphylococcus aureus ATCC 29213 and methicillin-resistant S. aureus ATCC 43300) were subjected to MIC testing.
# (§5) Paenipeptin analogues were two-fold diluted in tryptic soy broth (TSB; Becton Dickinson) and mixed with an equal volume of bacterial suspensions in TSB containing approximately 1.5×10^5 colony-forming units (CFU)/mL in a clear UV-sterilized 96-well microtiter plate (NBS, Corning Inc., Corning, N.Y.). […] The microtiter plate was incubated at 37° C. for 18-20 h.
# [2] = test system: Pseudomonas aeruginosa ATCC 27853; format: cell-based; settings: P. aeruginosa ATCC 27853; TSB
# Protocol: as §4, §5
# [3] = test system: Staphylococcus aureus ATCC 29213; format: cell-based; settings: S. aureus ATCC 29213; TSB
# Protocol: as §4, §5
# [4] = test system: methicillin-resistant S. aureus ATCC 43300; format: cell-based, Staphylococcus aureus; settings: S. aureus ATCC 43300; TSB
# Protocol: as §4, §5
# Cytotoxicity, MTT assay = format: cell-based, human; settings: human, HEK 293 cells, HEK 293, 24 h, read-out: Viability
# Protocol: (§1) Cytotoxicity of paenipeptin analogues was determined against a human kidney cell line (HEK 293) using MTT assays (Huang E, Yousef AE. 2014. Paenibacterin, a novel broad-spectrum lipopeptide antibiotic, neutralises endotoxins and promotes survival in a murine model of Pseudomonas aeruginosa-induced sepsis. Int J Antimicrob Agents 44: 74-77). Cell viability was measured at 24 h following the addition of lipopeptides at concentrations between 30-105 μg/ml. The viability of human embryonic kidney cells (HEK 293) decreased with the increase of paenipeptin concentration. The viability of HEK 293 cells in the presence of paenipeptin analogue 1 and 15 at 105 μg/ml was 61% and 67%, respectively (Table 10). The relatively low cytotoxicity of paenipeptin analogue 1 and 15 was correlated with their low hemolytic activity against red blood cells.
# [5] = test system: human kidney cell line (HEK 293); assay: Cytotoxicity, MTT assay; format: cell-based; settings: HEK 293; 105 μg/ml; 24 h
# Protocol: as §1
# [6] = test system: Acinetobacter baumannii ATCC 19606; assay: MIC of antibiotics with or without paenipeptin analogues (potentiation); format: cell-based; settings: A. baumannii ATCC 19606
# From the text: (§2) Gram-negative bacteria, including Acinetobacter and Klebsiella, are intrinsically resistant to the hydrophobic antibiotic rifampicin.
# [7] = test system: Klebsiella pneumoniae ATCC 13883; assay: as above; format: cell-based; settings: K. pneumoniae ATCC 13883
# From the text: as §2
# [8] = test system: A. baumannii FDA-CDC AR 0063; assay: Time-kill kinetics in 95% human serum, alone and combined; format: cell-based, Acinetobacter baumannii; settings: A. baumannii AR 0063, 24 h
# Protocol: (§3) Bacterial viable counts were determined at 0, 2, 4, 6, and 24 h after antimicrobial treatment. Bacterial surviving counts at 24 h endpoints were subjected to analysis of variance (ANOVA) followed by Tukey's honest significant difference (HSD) tests using SPSS Statistics (version 24; SPSS, Inc., Chicago, Ill., USA).
# To further test the therapeutic potential of paenipeptin analogues, the time-kill kinetics assays of paenipeptins alone or in combination with other antibiotics were performed in 95% human serum in vitro. Without antimicrobial treatment, the population of A. baumannii FDA-CDC AR 0063 increased from 5.8 log to 9.3 log within 24 h. […] (FIG. 7A).
# [9] = test system: K. pneumoniae FDA-CDC AR0097; assay: as above; format: cell-based, Klebsiella pneumoniae
# Protocol: as §3
# To further test the therapeutic potential of paenipeptin analogues, the time-kill kinetics assays of paenipeptins alone or in combination with other antibiotics were performed in 95% human serum in vitro.
# [10] = test system: A. baumannii FDA-CDC AR 0063; settings: A. baumannii AR 0063
# [11] = test system: A. baumannii FDA-CDC AR 0070; settings: A. baumannii AR 0070
# [12] = test system: A. baumannii FDA-CDC AR 0083; settings: A. baumannii AR 0083
# [13] = test system: K. pneumoniae FDA-CDC AR 0034; settings: K. pneumoniae AR 0034
# [14] = test system: K. pneumoniae FDA-CDC AR 0044; settings: K. pneumoniae AR 0044
# [15] = test system: K. pneumoniae FDA-CDC AR 0068; settings: K. pneumoniae AR 0068
# [16] = test system: K. pneumoniae FDA-CDC AR 0080; settings: K. pneumoniae AR 0080
# [17] = test system: K. pneumoniae FDA-CDC AR 0097; settings: K. pneumoniae AR 0097
structure (smiles),measurement,setting,value
CC[C@H](C)[C@H](NC(=O)[C@H](CCN)NC(=O)OCc1ccccc1)C(=O)N[C@@H](CCN)C(=O)N[C@H](Cc1ccccc1)C(=O)N[C@@H](CC(C)C)C(=O)N[C@@H](CCN)C(=O)N[C@@H](C(=O)N[C@@H](CC(C)C)C(=O)N[C@@H](CO)C(N)=O)C(C)C [Analogue 15] (Cbz-[Dab]I[Dab][dF]L[Dab][dV]LS-NH2),MIC,[1],8 to 16 µg/mL
same,MIC,[2],16 µg/mL
same,MIC,[3],>32 µg/mL
same,MIC,[4],>32 µg/mL
same,"viability at 24 h, 30 µg/mL","Cytotoxicity, MTT assay; 30 μg/ml",91.4 ± 4.09%
same,"viability at 24 h, 45 µg/mL","Cytotoxicity, MTT assay; 45 μg/ml",84.3 ± 8.12%
same,"viability at 24 h, 60 µg/mL","Cytotoxicity, MTT assay; 60 μg/ml",82 ± 4.54%
same,"viability at 24 h, 75 µg/mL","Cytotoxicity, MTT assay; 75 μg/ml",73.3 ± 5.37%
same,"viability at 24 h, 90 µg/mL","Cytotoxicity, MTT assay; 90 μg/ml",67.1 ± 10%
same,"viability at 24 h, 105 µg/mL","Cytotoxicity, MTT assay; 105 μg/ml",67.5 ± 9.66%
same,Viability,[5],67%
same,MIC of rifampicin at 2 μg/mL of paenipeptin analogue,[6],0.0019-0.0039 μg/ml
same,MIC of rifampicin at 2 μg/mL of paenipeptin analogue,[7],0.0039 μg/ml
same,MIC of rifampicin at 4 μg/mL of paenipeptin analogue,[7],0.00195-0.0039 μg/ml
same,Sensitization factor (rifampicin),[7]; MIC without / with 4 μg/mL paenipeptin,"4,096-8,192"
same,"decrease of bacterial population, analogue 4 μg/ml in combination with rifampicin 4 μg/ml",[8],2.7 log
same,"log reduction, analogue 4 μg/ml in combination with clarithromycin 4 μg/ml",[8],0.7 log
same,"log reduction, analogue 4 μg/ml in combination with rifampicin 4 μg/ml",[9]; 24 h,4.6 log
same,"log inactivation, single agent at 4 μg/ml",[9]; within 24 h,didn't show bactericidal activity
same,MIC alone,[10]; 10% FBS,2 µg/mL
same,MIC alone,[10]; No FBS,0.5 to 4 µg/mL
same,MIC alone,[11]; 10% FBS,0.5 to 1 µg/mL
same,MIC alone,[11]; No FBS,≤0.5 µg/mL
same,MIC of clarithromycin at the presence of PMBN or paenipeptin analogue at 4 μg/ml,[12],1-4 μg/ml
same,MIC of rifampicin at the presence of PMBN or paenipeptin analogue at 4 μg/ml,[12],0.0313-0.0625 μg/ml
same,MIC alone,[12]; 10% FBS,4 to 8 µg/mL
same,MIC alone,[12]; No FBS,8 to 16 µg/mL
same,MIC of clarithromycin at the presence of PMBN or paenipeptin analogue at 4 μg/ml,[13],0.125-0.5 μg/ml
same,MIC of rifampicin at the presence of PMBN or paenipeptin analogue at 4 μg/ml,[13],≤0.0019 μg/ml
same,MIC alone,[13]; 10% FBS,>32 µg/mL
same,MIC alone,[13]; No FBS,≥32 µg/mL
same,MIC of clarithromycin at the presence of PMBN or paenipeptin analogue at 4 μg/ml,[14],0.0078-0.0156 μg/ml
same,MIC of rifampicin at the presence of PMBN or paenipeptin analogue at 4 μg/ml,[14],≤0.0019 μg/ml
same,MIC alone,[14]; 10% FBS,16 to 32 µg/mL
same,MIC alone,[14]; No FBS,32 µg/mL
same,MIC of clarithromycin at the presence of PMBN or paenipeptin analogue at 4 μg/ml,[15],>32 μg/ml
same,MIC of rifampicin at the presence of PMBN or paenipeptin analogue at 4 μg/ml,[15],0.0039-0.0078 μg/ml
same,MIC alone,[15]; 10% FBS,>32 µg/mL
same,MIC alone,[15]; No FBS,>32 µg/mL
same,MIC of clarithromycin at the presence of PMBN or paenipeptin analogue at 4 μg/ml,[16],0.0156 μg/ml
same,MIC of rifampicin at the presence of PMBN or paenipeptin analogue at 4 μg/ml,[16],0.0313 μg/ml
same,MIC alone,[16]; 10% FBS,32 µg/mL
same,MIC alone,[16]; No FBS,32 µg/mL
same,MIC of clarithromycin at the presence of PMBN or paenipeptin analogue at 4 μg/ml,[17],0.0078-0.0156 μg/ml
same,MIC of rifampicin at the presence of PMBN or paenipeptin analogue at 4 μg/ml,[17],0.0019-0.0039 μg/ml
same,MIC alone,[17]; 10% FBS,16 to 32 µg/mL
same,MIC alone,[17]; No FBS,>32 µg/mL

# — patent US11364275B2, “Linear lipopeptide paenipeptins and methods of using the same” (priority 2017, dated 2022)
